This note sets out measurements from patent US10730886B2, “Compound having effect of inhibiting platelet aggregation and salt thereof, and composition for preventing or treating thrombotic diseases, containing same” (SHIN POONG PHARMACEUTICAL CO., LTD., priority 2015, dated 2020).

For the first series, the system named is carotid artery shear stress model. Kind of series: Carotid artery shear stress model, amount of thrombus. Particulars: rat, 50 mg/kg oral, twice a day for 3 days after operation. The format is in vivo, Sprague-Dawley rats. The procedure: Vehicle (0.5% methylcellulose), clopidogrel (8 mg/kg), aspirin (50 mg/kg) or a candidate substance was orally administered to male Sprague-Dawley rats (250 to 300 g). 2 hours after administration, the rats were anesthetized by ketamine/rompun (ketamine/xylazine) cocktail 0.1 ml/100 g. Except for the normal control group, the right cervical skin of the experimental animals was incised to expose the common carotid artery. A surgical tube with a length of 1 mm and an inside diameter of 0.58 mm was inserted into the exposed carotid artery and tied with a single thread. The exposed site and the operation site were treated with an anti-adhesion agent, and then sutured for the animals to recover. After the surgery, vehicle, clopidogrel, aspirin or a candidate substance was orally administered to the rats twice a day for 3 days. On the fourth day, 2 hours after the final administration, urethane (100 mg/300 μl/100 g) was administered intraperitoneally to the rats to induce anesthesia, and the operation site was opened to separate a total of 1 cm of the blood vessel, 5 mm above and 5 mm below the surgical tube. The separated blood vessel was perfused with 0.2 ml of 0.9% saline at 0.3 ml/min to remove the remaining blood, and then maintained in 1 ml of protein lysis buffer (NaOH 2 g, Na2CO3 0.1 g in 500 ml D.W). After collected, the blood vessel thrombus was double-boiled in boiling water together with the protein lysis buffer. 200 μl of the reaction solution (10 ml bicinchoninic acid solution+200 μl 4% aqueous solution of copper sulfate) was added to 10 μl of the heated thrombus, and the mixture was reacted at 37° C. for 30 minutes and quantified with an ELISA reader (562 nm).
As to `CC(=O)Oc1ccccc1C(=O)O` [Aspirin, aspirin, reference compound], the “Amount of thrombus (mg, Mean ± SEM)” value stood at 0.092 ± 0.007 mg.

For a further series, the system named is ICR mouse.
Assay: not given
The following applies: male, in vivo, po, 100 mg/kg, 7 days.
As for `CC(=O)Oc1ccccc1C(=O)O` [Aspirin, aspirin, reference compound], the “Bleeding time” value was found to be 12.3 ± 0.7 min; the “Bleeding time (min)” value is “exceeded 12 min”; the “bleeding time delayed, times compared with the control group” value was “about 7.6 times”.

Another series deals with human liver cells (HepG2). Put plainly: Cytotoxicity in human liver cells HepG2 (WST-1). The format is cell-based. The following applies: HepG2, 40 mM, control. The protocol: 5-3. Evaluation of Cytotoxicity of Candidate Substances Using Human Liver Cells
Experiments were conducted to evaluate cytotoxicity in human liver cells (HepG2). HepG2 cells, which are human liver carcinoma cell lines, were cultured in DMEM (Dulbecco's minimum essential medium) supplemented with 10% FBS (fetal bovine serum) and 1% Penicillin/Streptomycin at 37° C. and 5% CO2. The cells were cultured in a 48 well plate at 4×10^4 cells/well for 24 hours and then used in the experiments. The HepG2 cells were treated with the candidate substances (250 μM) for 18 hours, and then the medium was removed and WST-1 was added, followed by shading for 3 hours for reaction. After 3 hours, the supernatant was taken and absorbance was measured at 450 nm. Cell viability was calculated by comparing the absorbance measured after adding WST-1 to HepG2 cells not treated with the candidate substances. Acetaminophen (40 mM) was used as a control.
For orientation: Tetrazolium dyes change colour on reduction, which living cells bring about.
As for `CC(=O)Nc1ccc(O)cc1` [Acetaminophen, reference compound], the “Cell vaibility (%)” value is reported as 35.3 ± 3.5%.

The subject of a further series is Human Platelet Rich Plasma (PRP). Put plainly: Shear stress-induced platelet aggregation inhibition in human platelet rich plasma (PRP), cone-plate viscometer. Format: cell-based. Particulars: Homo sapiens, Platelet, Table 1 summary bins; concentration and matrix not given; read-out: Inhibitory effect of shear stress-induced platelet aggregation. The protocol:
1-1. Measurement of Platelet Aggregation Inhibitory Effect Using Human Platelet Rich Plasma (PRP)
Blood was collected from the veins of healthy male volunteers who had not taken any medication for more than 2 weeks. All related studies were conducted under the approval of the Seoul National University Institutional Review Board (IRB No. 1305/001-016). During the whole process of study the use of glass containers or glass pipettes was avoided, and the experiments were performed at room temperature. To separate platelet rich plasma (PRP), the blood was collected with 3.2% sodium citrate as an anticoagulant. The whole blood was centrifuged at 150 g for 15 minutes to obtain the supernatant (PRP), and the residue was centrifuged at 2,000 g for 20 minutes to obtain platelet poor plasma (PPP). The number of platelets of the PRP thus obtained was counted with an optical microscope using a hemacytometer. PRP was diluted with PPP so as to include 3×10^8 platelets per 1 ml, and then used in the experiments. PRP was put on a cone-plate viscometer (RotoVisco 1, Thermo Fischer Scientific, USA), and shear stress was applied to the PRP at 37° C. for 3 minutes at a shear rate of 10,800 s^−1. In order to evaluate candidate substances, prior to the induction of platelet aggregation, 598.8 μl of PRP was treated with 1.2 μl of 25 μM candidate substance and incubated at 37° C. for 3 minutes using a thermomixer. After applying the shear stress, 20 μl of PRP was fixed in 280 μl of a suspension buffer containing 0.5% glutaraldehyde (134 mM NaCl, 2.9 mM KCl, 1.0 mM MgCl2.6H2O, 10.0 mM HEPES, 5.0 mM dextrose, 12.0 mM NaHCO3, 0.34 mM Na2HPO4, 0.3% BSA, pH 7.4). Then, the number of single platelets in the suspension was counted using a hemacytometer. The degree of inhibition by the candidate substance was calculated according to the following formula (1). The degree of inhibition was determined by the method described below. No shear stress-applied group served as a control, and only shear stress-applied group served as positive control. Degree of inhibition (%)=[(1−A/B)×100]/[(1−A/C)×100] Formula 1
A: Number of single platelets in the shear stress-applied sample after treatment with candidate substance
B: Number of single platelets in the control group with no shear stress applied
C: Number of single platelets in the positive control group with only shear stress applied
With `O=C(c1ccc(O)c(O)c1)N1CCC(c2noc3ccc(F)cc23)CC1` [Example 2, (3,4-Dihydroxyphenyl)(4-(5-fluorobenzo[d]isoxazol-3-yl)piperidin-1-yl)methanone], the inhibition at 25 µM lay in the range of 20 to 30%. Same read-out and setting: then `O=C(NCC1CN(Cc2ccc(F)cc2)CCO1)c1ccc(O)c(O)c1` (centres unmarked) [Example 3, N-((4-(4-Fluorobenzyl)morpholin-2-yl)methyl)-3,4-dihydroxybenzamide], with not below 30%; and `O=C(NC1CCSC1=O)c1ccc(O)c(O)c1` (centres unmarked) [Example 4, 3,4-Dihydroxy-N-(2-oxotetrahydrothiophen-3-yl)benzamide], with not below 30%.

For `O=C(NCCCCCCCCCNC(=O)c1ccc(O)c(O)c1)c1ccc(O)c(O)c1` [Example 5, N,N′-(Nonan-1,9-diyl)bis(3,4-dihydroxybenzamide)], the inhibition at 25 µM was 20 to 30%. Same read-out and setting: with `O=C(c1ccc(O)c(O)c1)N1CCC(OC(c2ccc(Cl)cc2)c2ccccn2)CC1` (centres unmarked) [Example 6, (4-((4-Chlorophenyl)(pyridin-2-yl)methoxy)piperidin-1-yl)(3,4-dihydroxyphenyl)methanone] the figure was 20 to 30%; with `O=C(c1ccc(O)c(O)c1)N1CCC(O[C@@H](c2ccc(Cl)cc2)c2ccccn2)CC1` [Example 7, (S)-(4-((4-Chlorophenyl)(pyridin-2-yl)methoxy)piperidin-1-yl)(3,4-dihydroxyphenyl)methanone], 20 to 30%; with `COC(=O)[C@H](Cc1c[nH]c2ccccc12)NC(=O)c1ccc(O)c(O)c1` [Example 8, (S)-Methyl-2-(3,4-dihydroxybenzamido)-3-(1H-indol-3-yl)propanoate], 20 to 30%.

`CCCc1nn(C)c(C(N)=O)c1NC(=O)c1ccc(O)c(O)c1` [Example 9, 4-(3,4-Dihydroxybenzamido)-1-methyl-3-propyl-1H-pyrazole-5-carboxamide]: the inhibition at 25 µM was in the range of 20 to 30%. Same read-out and setting: with `Cc1occc(=O)c1OC(=O)c1ccc(O)c(O)c1` [Example 10, 2-Methyl-4-oxo-4H-pyran-3-yl 3,4-dihydroxybenzoate] the figure was 20 to 30%; with `O=C(c1ccc(O)c(O)c1)N1CCN(c2ccccc2)CC1` [Example 11, (3,4-Dihydroxyphenyl)(4-phenylpiperazin-1-yl)methanone], not below 30%. For the molecule `C#Cc1cccc(NC(=O)c2ccc(O)c(OC)c2)c1` [Example 16, N-(3-Ethynylphenyl)-4-hydroxy-3-methoxybenzamide], the inhibition at 25 µM was not below 30%. Same read-out and setting: with `CNC(=O)c1cc(Oc2ccc(NC(=O)c3ccc(O)c(OC)c3)cc2)ccn1` [Example 17, 4-(4-(4-Hydroxy-3-methoxybenzamido)phenoxy)-N-methylpicolinamide] the figure was 20 to 30%; with `COc1cc(C(=O)N2CCC(OC(c3ccc(Cl)cc3)c3ccccn3)CC2)ccc1O` (centres unmarked) [Example 18], not below 30%; with `COc1cc(C(=O)NCc2c(CO)cnc(C)c2O)ccc1O` [Example 19, 4-Hydroxy-N-((3-hydroxy-5-(hydroxymethyl)-2-methylpyridin-4-yl)methyl)-3-methoxybenzamide], 20 to 30%. Take `O=C(c1cc(O)ccc1O)N1CCC(OC(c2ccc(Cl)cc2)c2ccccn2)CC1` (centres unmarked) [Example 21, (4-((4-Chlorophenyl)(pyridin-2-yl)methoxy)piperidin-1-yl)(2,5-dihydroxyphenyl)methanone]: the inhibition at 25 µM lay in the range of 20 to 30%. The same measure, in the same setting: then `O=C(NCC1CN(Cc2ccc(F)cc2)CCO1)c1cc(O)ccc1O` (centres unmarked) [Example 22, N-((4-(4-Fluorobenzyl)morpholin-2-yl)methyl)-2,5-dihydroxybenzamide], with not below 30%; and `COc1ccc(CCNC(=O)c2cc(O)ccc2O)cc1OC` [Example 24, N-(3,4-Dimethoxyphenethyl)-2,5-dihydroxybenzamide], with 20 to 30%.

For `O=C(NCCc1cccs1)c1cc(O)ccc1O` [Example 25, 2,5-Dihydroxy-N-(2-(thiophen-2-yl)ethyl)benzamide], the inhibition at 25 µM was in the range of 20 to 30%. Same read-out and setting: with `O=C(NC1CCSC1=O)c1cc(O)ccc1O` (centres unmarked) [Example 26, 2,5-Dihydroxy-N-(2-oxotetrahydrothiophen-3-yl)benzamide] the figure was 20 to 30%.

The test system of a further series is Sprague-Dawley rats. Put plainly: Bleeding side effect (tail bleeding time) after single oral administration. The format is in vivo. Particulars: rat, 25 μM (so in the source), tail cut 1 hour after administration. The procedure:
Male Sprague-Dawley rats (250 to 300 g) were fasted overnight and then were orally administered with the candidate substances at each concentration. After 1 hour, the rats were anesthetized by intraperitoneal injection of urethane (1.25 g/kg). The 3 mm portion of the tail tip of the rats was cut and carefully wiped every 30 seconds. Bleeding time was measured in […] until no more blood was drawn, and when the bleeding lasted longer than 30 minutes, the bleeding time was recorded as 30 minutes.
Consider `CC(=O)Oc1ccccc1C(=O)O` [Aspirin, aspirin, reference compound], for which the “Bleeding time” value is given as 9.5 ± 0.8 min.

Still in this series, the particulars now being: rat, 100 μM (so in the source), tail cut 1 hour after administration.
For the molecule `CC(=O)Oc1ccccc1C(=O)O` [Aspirin, aspirin, reference compound], the “Bleeding time” value was 15.1 ± 0.8 min.
